According to the supplement of paper PMC5579334:

Experiments:
[1] = tested on: HSC2; experiment: relative IC50 (inflection point of fitted dose-response curve, CellTiter-Glo viability, 72 h; top asymptote may be below 50% inhibition); higher = less potent
Summary of the method: (§1)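 MPNST cell lines and primary human Schwann cells were seeded at 750–1000 cells per well into 384-well plates preprinted with each compound at five concentrations in 10-fold steps, then incubated 72 h at 37 °C, 5% CO2. CellTiter-Glo ATP luminescence gave viability, scaled between vehicle and positive-control wells, with duplicates averaged where present. Curves were fitted with a four-parameter logistic model. Percent inhibition refers to the top concentration, while drug sensitivity score and relative IC50, censored at the top concentration, come from these fits.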

[2] = tested on: S462; experiment: as above
Summary of the method: as §1

[3] = tested on: HS-PSS; experiment: as above
Summary of the method: as §1

[4] = tested on: YST-1; experiment: as above
Summary of the method: as §1

[5] = tested on: STS26T; experiment: as above
Summary of the method: as §1

[6] = tested on: S1507-2; experiment: as above
Summary of the method: as §1

[7] = tested on: ST8814; experiment: as above
Summary of the method: as §1

[8] = tested on: HSC1; experiment: as above
Summary of the method: as §1

[9] = tested on: HS-Sch-2; experiment: as above
Summary of the method: as §1

[10] = tested on: HSC2; experiment: relative IC50 (inflection point of fitted dose-response curve, CellTox-Green cytotoxicity, 72 h; top asymptote may be below 50%); higher = less potent
Summary of the method: (§2)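 For 72 h at 37 °C, MPNST cell lines and primary human Schwann cells were exposed in 384-well plates to five 10-fold compound dilutions. CellTox-Green, added before seeding at a final 1:1000 dilution, gave fluorescence from DNA released by disrupted cells. Signals were scaled to vehicle and positive-control wells, cultures failing plate quality control were left out, and four-parameter logistic fits were applied. Relative IC50 and drug sensitivity score were derived from the fits, with IC50 censored at the top concentration.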

[11] = tested on: STS26T; experiment: as above
Summary of the method: as §2

[12] = tested on: S1507-2; experiment: as above
Summary of the method: as §2

[13] = tested on: ST8814; experiment: as above
Summary of the method: as §2

[14] = tested on: HSC1; experiment: as above
Summary of the method: as §2

[15] = tested on: HS-PSS; experiment: as above
Summary of the method: as §2

Row | Structure (SMILES) | relative IC50 [1] [nM] | relative IC50 [2] [nM] | relative IC50 [3] [nM] | relative IC50 [4] [nM] | relative IC50 [5] [nM] | relative IC50 [6] [nM] | relative IC50 [7] [nM] | relative IC50 [8] [nM] | relative IC50 [9] [nM] | relative IC50 [10] [nM] | relative IC50 [11] [nM] | relative IC50 [12] [nM] | relative IC50 [13] [nM] | relative IC50 [14] [nM] | relative IC50 [15] [nM]
1 | CC[C@]1(O)C[C@H]2CN(CCc3c([nH]c4ccccc34)[C@@](C(=O)OC)(c3cc4c(cc3OC)N(C=O)[C@H]3[C@@](O)(C(=O)OC)[C@H](OC(C)=O)[C@]5(CC)C=CCN6CC[C@]43[C@@H]65)C2)C1 [Vincristine] | 11 | 3.42 | 9.51 | 2.18 | 1.76 | 6.45 | 6.95 | 10.3 | 2.19 | 44.7 | 1.13 | 8.92 | 6.85 | 62.2 | 
2 | CC[C@@]1(O)C(=O)OCc2c1cc1n(c2=O)Cc2cc3ccccc3nc2-1 [Camptotechin] | 40.5 | 30.2 |  |  | 62.8 | 100 | 30.7 | 47.3 |  | 136 | 126 | 244 | 14.6 | 75.7 | 
3 | Nc1nc(OCc2cc(Br)cs2)c2[nH]cnc2n1 [Lomeguatrib] | > 10000 | > 10000 |  | > 10000 | > 10000 | > 10000 | > 10000 | > 10000 | > 10000 | > 10000 | > 10000 | > 10000 | > 10000 | > 10000 | > 10000
4 | O=C(O)C1(C(=O)O)CCC1.[NH2-].[NH2-].[Pt+2] [Carboplatin aq] | 14600 | 17000 |  |  | 19500 | 20600 | 24400 | 14500 |  | 20500 | 27300 | 37300 | 25100 | 27600 | 
5 | Cn1c(CCCC(=O)O)nc2cc(N(CCCl)CCCl)ccc21 [Bendamustine] | > 10000 | > 10000 | > 10000 |  | > 10000 | > 10000 | > 10000 | > 10000 | > 10000 | > 10000 | > 10000 | > 10000 | > 10000 | > 10000 | > 10000
6 | CCN(CC)CCCC(C)Nc1c2ccc(Cl)cc2nc2ccc(OC)cc12 (stereo not drawn) [Mepacrine aq] | 1230 | 918 |  |  | 1320 | 1070 | 929 | 1230 |  | 1170 | 2370 | 2200 | 2910 | 956 | 
7 | C[C@H]1C=C2C(=O)O[C@H]3CC[C@@H](C1)[C@@]23O [Galiellalactone] | 9860 | 8040 | 6450 | 9960 | 7720 | 9350 | 10100 | 5260 | 4620 | > 50000 | 14600 | 15700 | > 50000 |  | > 25000
8 | CC(=O)O[C@]1(C(C)=O)CC[C@H]2[C@@H]3C=C(C)C4=CC(=O)CC[C@]4(C)[C@H]3CC[C@@]21C [Megestrol] | > 10000 | > 10000 |  |  | > 10000 | > 10000 | > 10000 | > 10000 |  | > 10000 | > 10000 | > 10000 | > 10000 | > 10000 | 
9 | COc1cc2c(cc1O)CC[C@@H]1[C@@H]2CC[C@]2(C)[C@@H](O)CC[C@@H]12 [2-methoxyestradiol] | 1230 | 747 | 3060 | 1650 | 922 | 1860 | 2580 | 1170 | 841 | 1500 | 1020 | 1660 | 3130 |  | > 10000
10 | CCN(CC)CCCC(C)Nc1ccnc2cc(Cl)ccc12 (stereo not drawn) [Chloroquine aq] | 13100 | 6940 |  |  | 5430 | 1800 | 3100 | 12300 |  | 19900 | 3190 | 3280 | 2820 | 15800 | 
11 | Cn1c(Nc2ccc(C(F)(F)F)cc2)nc2cc(Oc3ccnc(-c4ncc(C(F)(F)F)[nH]4)c3)ccc21 [RAF265] | 20.6 | 111 | 177 | 131 | 137 | 136 | 107 | 49.6 |  | > 1000 | > 1000 | > 1000 | > 1000 | > 1000 | > 1000
12 | CC[C@@H]1C(=O)N(C)c2cnc(Nc3ccc(C(=O)NC4CCN(C)CC4)cc3OC)nc2N1C1CCCC1 [BI 2536] | 22.6 | 4.92 | 7.64 | 3.54 | 3.49 | 11.9 | 9.3 | 27.1 | 3.28 | 21.5 | 2.27 | 10.6 | 4.57 | 22.3 | 
13 | COc1ccc(-c2cc3c(C)nc(N)nc3n([C@H]3CC[C@H](OCCO)CC3)c2=O)cn1 | 270 | 196 | 404 | 57.8 | 124 | 89 | 209 | 197 | 476 | 2710 | 350 | 1630 | 1520 | 501 | 
14 | CCNC(=O)c1noc(-c2cc(C(C)C)c(O)cc2O)c1-c1ccc(CN2CCOCC2)cc1 [NVP-AUY922] | 12 | 21.7 |  |  | 22.9 | 18.3 | 22.9 | 14.3 |  | 20.4 | 42.1 | 13.9 | 67.9 | 23.2 | 
